“And” between values parts separate entries of the source, which are not always exact repeats. Equal entries are not always repeated. Inconclusive results and toxic doses are left out.
Test system: P388 leukemia ip, CD2F1 mice, survival T/C
Experiment: NCI In Vivo Anticancer Drug Screen. Data for tumor model P388 Leukemia (intraperitoneal) in CD2F1 (CDF1) mice
Conditions: endpoint: median survival time, higher = longer survival
Method in brief: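 Mice carrying the transplanted tumor received test compound or vehicle. Survival was recorded in each group, and the value is the treated-group measurement divided by that of the vehicle-treated control group.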

[1] = dose: 60.0 mg/kg/injection, schedule: Q01DX005 (ip), vehicle: saline
[2] = dose: 120.0 mg/kg/injection, schedule: Q01DX005 (ip), vehicle: saline
[3] = dose: 240.0 mg/kg/injection, schedule: Q01DX005 (ip), vehicle: saline
[4] = dose: 60.0 mg/kg/injection, schedule: Q01DX005 (ip), vehicle: saline with Tween-80
[5] = dose: 50.0 mg/kg/injection, schedule: Q01DX009 (ip), vehicle: Klucel (hydroxypropylcellulose) (HPC)
[6] = dose: 100.0 mg/kg/injection, schedule: Q01DX009 (ip), vehicle: Klucel (hydroxypropylcellulose) (HPC)
[7] = dose: 200.0 mg/kg/injection, schedule: Q01DX009 (ip), vehicle: Klucel (hydroxypropylcellulose) (HPC)
[8] = dose: 60.0 mg/kg/injection, schedule: Q01DX005 (ip), vehicle: Klucel (hydroxypropylcellulose) (HPC)
[9] = dose: 120.0 mg/kg/injection, schedule: Q01DX005 (ip), vehicle: Klucel (hydroxypropylcellulose) (HPC)
[10] = dose: 240.0 mg/kg/injection, schedule: Q01DX005 (ip), vehicle: Klucel (hydroxypropylcellulose) (HPC)
[11] = dose: 120.0 mg/kg/injection, schedule: Q01DX005 (ip), vehicle: saline with Tween-80
[12] = dose: 400.0 mg/kg/injection, schedule: Q01DX009 (ip), vehicle: Klucel (hydroxypropylcellulose) (HPC)

CCN(CC)CCCOC(=O)N(Cc1ccc(Cl)cc1)C1CC1
T/C (dose: 25.0 mg/kg/injection, schedule: Q01DX009 (ip), vehicle: saline + Tween-80 + alcohol): 108 % of control | T/C (dose: 50.0 mg/kg/injection, schedule: Q01DX009 (ip), vehicle: saline + Tween-80 + alcohol): 108 % of control | T/C (dose: 100.0 mg/kg/injection, schedule: Q01DX009 (ip), vehicle: saline + Tween-80 + alcohol): 110 % of control

COC(=O)c1cc(-c2ccc(C)cc2)[nH]c(=O)c1C#N
T/C [1]: 103 % of control | T/C [2]: 100 % of control | T/C [3]: 108 % of control

c1c(-c2cc(C3CC3)on2)noc1C1CC1
T/C [1]: 100 % of control | T/C [2]: 109 % of control | T/C [3]: 105 % of control

c1csc(-c2ccn[nH]2)c1
T/C (dose: 15.0 mg/kg/injection, schedule: Q01DX005 (ip), vehicle: saline with Tween-80): 100 % of control | T/C (dose: 30.0 mg/kg/injection, schedule: Q01DX005 (ip), vehicle: saline with Tween-80): 100 % of control | T/C [4]: 116 % of control and 91 % of control

COc1ccc(C=NC(C)(C)CO)cc1OC
T/C (dose: 25.0 mg/kg/injection, schedule: Q01DX005 (ip), vehicle: Klucel (hydroxypropylcellulose) (HPC)): 100 % of control | T/C (dose: 50.0 mg/kg/injection, schedule: Q01DX005 (ip), vehicle: Klucel (hydroxypropylcellulose) (HPC)): 109 % of control | T/C (dose: 100.0 mg/kg/injection, schedule: Q01DX005 (ip), vehicle: Klucel (hydroxypropylcellulose) (HPC)): 101 % of control | T/C (dose: 200.0 mg/kg/injection, schedule: Q01DX005 (ip), vehicle: Klucel (hydroxypropylcellulose) (HPC)): 100 % of control

Cc1ccc(N=Nc2c(-c3ccccc3)nn(C(=S)S)c2-c2ccccc2)cc1
T/C (dose: 25.0 mg/kg/injection, schedule: Q04DX002 (ip), vehicle: Klucel (hydroxypropylcellulose) (HPC)): 101 % of control | T/C (dose: 50.0 mg/kg/injection, schedule: Q04DX002 (ip), vehicle: Klucel (hydroxypropylcellulose) (HPC)): 105 % of control | T/C (dose: 100.0 mg/kg/injection, schedule: Q04DX002 (ip), vehicle: Klucel (hydroxypropylcellulose) (HPC)): 99 % of control | T/C (dose: 200.0 mg/kg/injection, schedule: Q04DX002 (ip), vehicle: Klucel (hydroxypropylcellulose) (HPC)): 103 % of control

CC(C)N1CCC(OC(=O)Nc2ccccc2)C1 (centres undefined)
T/C [5]: 100 % of control | T/C [6]: 99 % of control | T/C [7]: 98 % of control

CCN(CC)CCN1C=CC(=C2C(=O)c3ccccc3C2=O)C=C1
T/C [8]: 99 % of control | T/C [9]: 101 % of control | T/C [10]: 99 % of control

O=C(CCl)OCCN1Cc2nc3sc4c(c3c(=O)n2CC1=O)CCCC4
T/C (dose: 50.0 mg/kg/injection, schedule: Q01DX009 (ip), vehicle: saline with Tween-80): 97 % of control | T/C (dose: 100.0 mg/kg/injection, schedule: Q01DX009 (ip), vehicle: saline with Tween-80): 94 % of control | T/C (dose: 200.0 mg/kg/injection, schedule: Q01DX009 (ip), vehicle: saline with Tween-80): 112 % of control

COc1ccc(C(=O)Cc2nc3nnc(N)n3nc2CC(=O)c2ccc(OC)cc2)cc1
T/C [1]: 96 % of control | T/C [2]: 100 % of control | T/C [3]: 100 % of control

O=C(NC1=NN(Cc2ccccc2)C(=O)C1)c1ccc(S(=O)(=O)F)cc1
T/C [4]: 113 % of control | T/C [11]: 121 % of control

OCC(O)C(O)C(O)c1nn(-c2ccccc2)c2nc3ccccc3nc12 (centres undefined)
T/C (dose: 25.0 mg/kg/injection, schedule: Q01DX005 (ip), vehicle: saline with Tween-80): 94 % of control | T/C (dose: 50.0 mg/kg/injection, schedule: Q01DX005 (ip), vehicle: saline with Tween-80): 100 % of control and 90 % of control | T/C (dose: 100.0 mg/kg/injection, schedule: Q01DX005 (ip), vehicle: saline with Tween-80): 90 % of control | T/C (dose: 200.0 mg/kg/injection, schedule: Q01DX005 (ip), vehicle: saline with Tween-80): 90 % of control

CC(C)C1OC(/C=C/c2ccccc2)OCC1(C)C (centres undefined)
T/C (dose: 25.0 mg/kg/injection, schedule: Q04DX003 (ip), vehicle: saline with Tween-80): 102 % of control | T/C (dose: 50.0 mg/kg/injection, schedule: Q04DX003 (ip), vehicle: saline with Tween-80): 102 % of control | T/C (dose: 100.0 mg/kg/injection, schedule: Q04DX003 (ip), vehicle: saline with Tween-80): 104 % of control | T/C (dose: 200.0 mg/kg/injection, schedule: Q04DX003 (ip), vehicle: saline with Tween-80): 98 % of control | T/C (dose: 400.0 mg/kg/injection, schedule: Q04DX003 (ip), vehicle: saline with Tween-80): 102 % of control

CC(=O)Nc1cc(NC(C)=O)cc(N(CCCl)CCCl)c1
T/C (dose: 3.13 mg/kg/injection, schedule: Q01DX009 (ip), vehicle: water): 118 % of control | T/C (dose: 12.5 mg/kg/injection, schedule: Q01DX009 (ip), vehicle: water): 151 % of control | T/C (dose: 16.5 mg/kg/injection, schedule: Q01DX009 (ip), vehicle: water): 162 % of control | T/C (dose: 25.0 mg/kg/injection, schedule: Q01DX009 (ip), vehicle: water): 154 % of control and 169 % of control and 196 % of control | T/C (dose: 37.5 mg/kg/injection, schedule: Q01DX009 (ip), vehicle: water): 122 % of control

O=C(/C=C\c1ccc(Cl)cc1)c1ccccc1
T/C (dose: 12.5 mg/kg/injection, schedule: Q01DX009 (ip), vehicle: Klucel (hydroxypropylcellulose) (HPC)): 101 % of control and 91 % of control | T/C (dose: 25.0 mg/kg/injection, schedule: Q01DX009 (ip), vehicle: Klucel (hydroxypropylcellulose) (HPC)): 100 % of control | T/C [5]: 93 % of control and 95 % of control | T/C (dose: 50.0 mg/kg/injection, schedule: Q01DX009 (ip), vehicle: gum acacia): 98 % of control | T/C [6]: 99 % of control and 93 % of control | T/C (dose: 100.0 mg/kg/injection, schedule: Q01DX009 (ip), vehicle: gum acacia): 104 % of control | T/C [7]: 98 % of control and 100 % of control | T/C (dose: 200.0 mg/kg/injection, schedule: Q01DX009 (ip), vehicle: gum acacia): 104 % of control | T/C [12]: 108 % of control and 92 % of control | T/C (dose: 400.0 mg/kg/injection, schedule: Q01DX009 (ip), vehicle: gum acacia): 104 % of control

COc1ccc(C(CC(=O)O)c2cc3c(cc2OC)OCO3)cc1 (centres undefined)
T/C (dose: 50.0 mg/kg/injection, schedule: Q01DX005 (ip), vehicle: distilled water + Tween-80): 94 % of control | T/C (dose: 100.0 mg/kg/injection, schedule: Q01DX005 (ip), vehicle: distilled water + Tween-80): 96 % of control | T/C (dose: 200.0 mg/kg/injection, schedule: Q01DX005 (ip), vehicle: distilled water + Tween-80): 90 % of control

CCC[CH2][Sn]([CH2]CCC)([S]CCS(=O)(=O)O)[S]CCS(=O)(=O)O (tested in a mixture with another compound)
T/C [8]: 105 % of control | T/C [9]: 105 % of control | T/C [10]: 115 % of control

CCO/C=C(\C#N)S(=O)(=O)/C(C#N)=C/OCC
T/C (dose: 100.0 mg/kg/injection, schedule: Q04DX002 (ip), vehicle: saline): 108 % of control | T/C (dose: 200.0 mg/kg/injection, schedule: Q04DX002 (ip), vehicle: saline): 101 % of control

OC(Cn1cccc1)Cn1cccc1
T/C [1]: 100 % of control | T/C [2]: 103 % of control | T/C [3]: 100 % of control

CCCCCCCCCCCCCCCCS(=O)(=O)c1ccc(NN)cc1
T/C [6]: 90 % of control | T/C [7]: 89 % of control | T/C [12]: 87 % of control

ClC1=CC(Cl)=C2N=C(N3CCCC3)N=C3N=C(C(Cl)(Cl)Cl)N=C1N32
T/C (dose: 60.0 mg/kg/injection, schedule: Q01DX005 (ip), vehicle: Klucel + Tween-80): 96 % of control | T/C (dose: 120.0 mg/kg/injection, schedule: Q01DX005 (ip), vehicle: Klucel + Tween-80): 96 % of control | T/C (dose: 240.0 mg/kg/injection, schedule: Q01DX005 (ip), vehicle: Klucel + Tween-80): 87 % of control

O=C1OC(Oc2ccccc2)c2cc3c(cc21)OCO3 (centres undefined)
T/C [4]: 90 % of control | T/C [11]: 90 % of control | T/C (dose: 240.0 mg/kg/injection, schedule: Q01DX005 (ip), vehicle: saline with Tween-80): 99 % of control

CCCCN(CCCC)CCN1C(=O)c2ccccc2S1(=O)=O
T/C (dose: 50.0 mg/kg/injection, schedule: Q01DX005 (ip), vehicle: saline): 104 % of control | T/C (dose: 100.0 mg/kg/injection, schedule: Q01DX005 (ip), vehicle: saline): 109 % of control | T/C (dose: 200.0 mg/kg/injection, schedule: Q01DX005 (ip), vehicle: saline): 102 % of control

O=C1CSC(=S)N1c1ccc(N=Nc2ccccc2)cc1
T/C (dose: 50.0 mg/kg/injection, schedule: Q01DX009 (ip), vehicle: saline): 98 % of control | T/C (dose: 100.0 mg/kg/injection, schedule: Q01DX009 (ip), vehicle: saline): 99 % of control | T/C (dose: 200.0 mg/kg/injection, schedule: Q01DX009 (ip), vehicle: saline): 86 % of control

From PubChem BioAssay AID330 (DTP/NCI, 2004)
